According to patent US20230382940A1, “ANTIVIRAL COMPOUNDS AND METHODS OF MAKING AND USING THE SAME” (Gilead Sciences, Inc., priority 2022, published 2023):

Assays:
[1] = test system: Respiratory syncytial virus recombinant with luciferase (RSV-Luc5); assay: NHBE RSV-Luc5 384-well assay (EC50 RSVFLUC NHBE-384 v2), Example W; type: cell-based; details: human respiratory syncytial virus, 72 h, read-out: EC50 RSV FLUC NHBE 384 V2 (per Ex. W)
Method in brief: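 Primary NHBE cells (passage 2), 5,000/well, infected with RSV-Luc5 at MOI 1 alongside 10-point 1:3 compound dilutions; 3 days at 37° C. Replication read by One-Glo luminescence, normalized to remdesivir (0%) and DMSO (100%); EC50 = concentration reducing replication by 50%, from non-linear regression.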

[2] = GI S9 stability, rat, Example Y; type: in vitro ADME; details: pooled intestinal S9 fractions; rat intestinal S9, 1.0 mg/mL protein, 2 μM compound, pH 7.4; read-out: GIS9 Rat T½ (per Ex. Y)
Method: (§1) Example Y: GI S9 Stability Data
(§2) Stock solutions of test compounds in dimethyl sulfoxide (DMSO) having a final concentration of 10 mM were prepared and used in all experiments. Sekisui XenoTech (Kansas City, KS) provided pooled intestinal S9 fractions. All other chemicals were purchased from Sigma-Aldrich (St. Louis, MO) or VWR (West Chester, PA). Internal Standard/Quench (IS/Q) used to stop reactions was 100 nM labetalol in (by volume) methanol (10%) and acetonitrile (90%).
(§3) Stability in Intestinal S9 Fractions: Duplicate aliquots of test compound or positive control substrate were added to S9 stock diluted with phosphate buffered saline (137 mM NaCl, 2.7 mM KCl, 10 mM phosphate buffer), pH 7.4, to obtain a protein concentration of 1.0 mg/mL. The metabolic reactions were initiated by the addition of the substrates to the S9 reaction mixture to a final concentration of 2 μM. At 0, 10, 20, 30, 60 and 120 min, 25 μL aliquots of the reaction mixture were transferred to plates containing 225 μl of IS/Q solution. After quenching, the plates were centrifuged at 3000×g for 30 minutes. 150 μL aliquots of each supernatant were dried down then reconstituted with 300 μL water. Aliquots (10 μL) of the prepared samples were analyzed on a Thermo Q-Exactive mass spectrometer as described below.
(§4) Liquid Chromatography—Mass Spectrometry: Quantification of test compounds and control substrate was performed by analyte/internal standard peak area ratio (PAR) values measured on a Thermo Q-Exactive mass spectrometer coupled to a Dionex UltiMate 3000 HPLC with a Leap Technologies HTC PAL autosampler. The column used for analysis was a Waters Acquity BEH C18 (1.7 μm particle size, 2.1×50 mm). Mobile phase A consisted of 0.1% (v/v) formic acid in water. Mobile phase B consisted of 0.1% (v/v) formic acid in acetonitrile. Elution of analytes was achieved by a series of linear gradients varying the proportions of A and B. The mass spectrometer was calibrated on a weekly basis and mass tolerance of 5 ppm was used.
(§5) Metabolic stabilities in S9 fractions were determined by measuring the rates of disappearance of test compound and positive control substrate.
(§6) Data (% of substrate remaining) were plotted on a semi-log scale and fitted using an exponential decline model:
(§7) Ct=C0×e^−ln2/T1/2×t • Where Ct—% of substrate remaining at time=t; C0—% of substrate remaining at time=0; t—time; T1/2—half-life. • The Half-life (T1/2) is determined by the following equation: […]
(§8) Assuming a first-order reaction, the slope (k) is extrapolated from the aforementioned plotted data.

[3] = GI S9 stability, dog, Example Y; type: in vitro ADME; details: dog intestinal S9, 1.0 mg/mL protein, 2 μM compound, pH 7.4; for half-life at 2 μM: pooled intestinal S9 fractions, read-out: GIS9 DOG T½ (per Ex. Y)
Method: as §1, §2, §3, §4, §5, §6, §7, §8

[4] = GI S9 stability, cyno, Example Y; type: in vitro ADME; details: cynomolgus monkey, pooled intestinal S9 fractions; cyno intestinal S9, 1.0 mg/mL protein, 2 μM compound, pH 7.4; read-out: GIS9 Cyno T½ (per Ex. Y)
Method: as §1, §2, §3, §4, §5, §6, §7, §8

[5] = GI S9 stability, human, Example Y; type: in vitro ADME; details: pooled intestinal S9 fractions; human intestinal S9, 1.0 mg/mL protein, 2 μM compound, pH 7.4; read-out: GIS9 Human T½ (per Ex. Y)
Method: as §1, §2, §3, §4, §5, §6, §7, §8

SMILES | EC50 [1] [µM] | half-life at 2 μM [2] [h] | GIS9 DOG T½ (per Ex. Y) [3] [h] | half-life at 2 μM [4] [h] | half-life at 2 μM [5] [h] | half-life at 2 μM [3] [h]
CC(C)OC(=O)OC[C@@]1(C#N)O[C@@H](c2ccc3c(N)ncnn23)[C@H](O)[C@@H]1O [Compound 11, ((2R,3S,4R,5S)-5-(4-aminopyrrolo[2,1-f][1,2,4]triazin-7-yl)-2-cyano-3,4-dihydroxytetrahydrofuran-2-yl)methyl isopropyl carbonate] | 12 | 0.233 | 13.2 | 0.583 | 1.73 | –
CC(C)(C)OC(=O)OC[C@@]1(C#N)O[C@@H](c2ccc3c(N)ncnn23)[C@H](O)[C@@H]1O [Compound 13, ((2R,3S,4R,5S)-5-(4-aminopyrrolo[2,1-f][1,2,4]triazin-7-yl)-2-cyano-3,4-dihydroxytetrahydrofuran-2-yl)methyl tert-butyl carbonate] | 10.8 | 1.23 | – | 1.2 | 1.62 | 1.6
CCC(CC)OC(=O)OC[C@@]1(C#N)O[C@@H](c2ccc3c(N)ncnn23)[C@H](O)[C@@H]1O [Compound 14, ((2R,3S,4R,5S)-5-(4-aminopyrrolo[2,1-f][1,2,4]triazin-7-yl)-2-cyano-3,4-dihydroxytetrahydrofuran-2-yl)methyl pentan-3-yl carbonate] | 14.9 | 0.267 | – | 0.133 | 1.73 | 8.9
CC(C)COC(=O)OC[C@@]1(C#N)O[C@@H](c2ccc3c(N)ncnn23)[C@@H]2OC(=O)O[C@@H]21 [Compound 15, ((3aS,4R,6S,6aS)-6-(4-aminopyrrolo[2,1-f][1,2,4]triazin-7-yl)-4-cyano-2-oxotetrahydrofuro[3,4-d][1,3]dioxol-4-yl)methyl isobutyl carbonate] | 11.4 | 0.0333 | – | 0.0333 | 0.0167 | 0.2
N#C[C@]1(COC(=O)O[C@@H]2CCOC2)O[C@@H](c2ccc3c(N)ncnn23)[C@H](O)[C@@H]1O [Compound 24, ((2R,3S,4R,5S)-5-(4-aminopyrrolo[2,1-f][1,2,4]triazin-7-yl)-2-cyano-3,4-dihydroxytetrahydrofuran-2-yl)methyl ((R)-tetrahydrofuran-3-yl) carbonate] | 7.33 | 0.783 | 13.2 | 2.45 | 2.97 | –
N#C[C@]1(COC(=O)O[C@H]2CCOC2)O[C@@H](c2ccc3c(N)ncnn23)[C@H](O)[C@@H]1O [Compound 33, ((2R,3S,4R,5S)-5-(4-aminopyrrolo[2,1-f][1,2,4]triazin-7-yl)-2-cyano-3,4-dihydroxytetrahydrofuran-2-yl)methyl ((S)-tetrahydrofuran-3-yl) carbonate] | 8.01 | 0.967 | 13.2 | 2.72 | 4.17 | –
